According to patent publication US20230057071A1 (NOVARTIS AG, priority 2019, published 2023):

How the values were obtained:
[1] = test system: AML PDX model HAMLX5343 (KRASG12D, WT1, PTPN11); format: in vivo
Description: Initial group size: 4 animals. […] All final data were recorded on day 56.
(§1) The activity of MBG453 with and without decitabine was evaluated in two AML patient-derived xenograft (PDX) models, HAMLX21432 and HAMLX5343. Decitabine (TCI America) was formulated in dextrose 5% in water (D5W) freshly prior to each dose and administered daily for 5 days. It was administered at 10 mL/kg intraperitoneal (i.p.), for a final dose […]. MBG453 was formulated to a final concentration of 1 mg/mL in PBS. It was administered weekly at a volume of 10 mL/kg, i.p., for a final dose of 10 mg/kg, with treatment initiating on dosing day 6, 24 hours after the final dose of decitabine.

[2] = cited from earlier work
[3] = test system: AML PDX model HAMLX21432 (IDH1R132H); format: in vivo
Description: MBG453 was administered i.p. at 10 mg/kg, once weekly (starting at day 6 of dosing) either as a single agent or in combination with decitabine i.p. at 1 mg/kg, once daily for a total of 5 doses (from initiation of dosing). Initial group size: 4 animals. […] All final data were recorded on day 56. Leukemic burden was measured as a percentage of human CD45+ cells in peripheral blood by FACS analysis.
as §1
Treatments were initiated on the day of randomization and continued for 21 days.

[4] = biological target: T1, TIM-3/Galectin-9 interaction (Homo sapiens, UniProt Q8TDQ0); assay: Plate-based (MesoScale) competition assay of the TIM-3/Galectin-9 interaction; format: binding; conditions: serial dilutions of antibody; labeled Galectin-9 100 nM
T1 construct: purchased R&D Systems
Description: FIG. 1 is a graph depicting the impact of MBG453 on the interaction between TIM3 and galectin-9. Competition was assessed as a measure of the ability of the antibody to block Gal9-SULFOTag signal to TIM-3 receptor, which is shown on the Y-axis. Concentration of the antibody is shown on the X-axis.
TIM-3 fusion protein (R&D Systems) was coated on a standard MesoScale 96 well plate (Meso Scale Discovery) at 2 μg/ml in PBS (Phosphate Buffered Saline) and incubated for six hours at room temperature. The plate was washed three times with PBST (PBS buffer containing 0.05% Tween-20) and blocked with PBS containing 5% Probumin (Millipore) overnight at 4° C. After incubation, the plate was washed three times with PBST and unlabeled antibody (F38-2E2 (BioLegend); MBG453; MBG453 F(ab′)2; MBG453 F(ab); or control recombinant human Galectin-9 protein) diluted in Assay Diluent (2% Probumin, 0.1% Tween-20, 0.1% Triton X-100 (Sigma) with 10% StabilGuard (SurModics)), was added in serial dilutions to the plate and incubated for one hour on an orbital shaker at room temperature. […] The plate was again washed three times with PBST, and Read Buffer T (1×) was added to the plate. The plate was read on MA600 Imager, and competition was assessed as a measure of the ability of the antibody to block Gal9-SULFOTag signal to TIM-3 receptor.

[5] = test system: THP-1 cells engineered to overexpress TIM-3; assay: T cell-mediated killing of TIM-3-overexpressing versus parental THP-1 cells (co-culture, flow cytometry); format: cell-based, human; conditions: 25 μg/ml; 3 days co-culture; anti-CD3/anti-CD28 beads
Description: The ratio between TIM-3-expressing THP-1 cells and parental THP-1 cells (“fold” in y-axis of graph) was calculated and normalized to conditions without anti-CD3/anti-CD28 bead stimulation. The x-axis of the graph denotes the stimulation amount as number of beads per cell. Data represents one of two independent experiments.
THP-1 cells express TIM-3 mRNA but low to no TIM-3 protein on the cell surface. […] TIM-3 Flag-tagged THP-1 cells were labeled with 2 μM CFSE (Thermo Fisher Scientific), and THP-1 parental cells were labeled with 2 μM CTV (Thermo Fisher Scientific), according to manufacturer instructions. Co-culture assays were performed in 96-well round-bottom plates. […] Cells were then detected and counted by flow cytometry. The ratio between TIM-3-expressing THP-1 cells and parental THP-1 cells (“fold” in y-axis of graph) was calculated and normalized to conditions without anti-CD3/anti-CD28 bead stimulation. […]

[6] = test system: rodent and cynomolgus monkey TGF-β; assay: Species cross-reactivity of NIS793; format: binding
IL-1 signaling = conditions: mouse model of disease; cited from earlier work
[7] = single agent, 1 mg/kg i.p. daily x5

Nc1ncn([C@H]2C[C@H](O)[C@@H](CO)O2)c(=O)n1 [decitabine, 4-amino-1-(2-deoxy-beta-D-erythro-pentofuranosyl)-1,3,5-triazin-2(1H)-one]
leukemic burden, hCD45+ cells ([1]; group average, day 53 post-implant or day 21 post-treatment start): 1% | anti-tumor activity [1, 7]: significant anti-tumor activity | response ([2]; 21 patients with myelofibrosis): 7 of 19 | Grade 3/4 neutropenia ([2]; myelofibrosis cohort): 95 % of patients | Grade 3/4 thrombocytopenia ([2]; myelofibrosis cohort): 52 % of patients | leukemic burden, hCD45+ cells in circulation ([3]; day 56 post-implantation): 66% | leukemic burden, hCD45+ cells in peripheral blood ([3]; group average, day 49 post-implant or day 14 post-treatment start, decitabine 1 mg/kg i.p. daily x5, MBG453 10 mg/kg i.p. weekly): 51% | anti-tumor activity [3, 7]: moderate anti-tumor activity

MBG453 F(ab): F(ab) fragment of MBG453
block of the interaction between TIM-3 and Galectin-9 (Gal9-SULFOTag signal to TIM-3) [4]: partially blocked | T cell-mediated killing of TIM-3-overexpressing THP-1 cells relative to parental THP-1 cells [5]: not

MBG453 F(ab′)2: F(ab′)2 fragment of MBG453
block of the interaction between TIM-3 and Galectin-9 (Gal9-SULFOTag signal to TIM-3) [4]: partially blocked

NIS793: fully human IgG2 monoclonal antibody that specifically binds and neutralizes TGF-beta 1 and 2 ligands
cross-reactivity with rodent and cynomolgus monkey TGF-β [6]: cross-reacts

anakinra: recombinant IL-1 receptor antagonist (IL-1Ra)
BM MSC frequency (IL-1 signaling): increased | platelet counts (IL-1 signaling): reduced
